# Test results as given in US20230357253A1, “AGONISTS OF STIMULATOR OF INTERFERON GENES STING” (THE SCRIPPS RESEARCH INSTITUTE, priority 2020, published 2023).
# Assays:
# human STING protein = human STING protein (Homo sapiens (Human), UniProt Q86WV6); experiment: WT STING binding assay (HTRF, competition with labeled 2′3′cGAMP); settings: recombinant 6×His-tagged human STING, three hours at room temperature
# Description: WT STING binding assay (Cisbio, Catalog #64BDSTGPEH). […] Upon proximity of the two dyes, the excitation of the donor by the flash lamp on the PHERAstar FSX plate reader triggers a Fluorescence Resonance Energy Transfer (FRET) towards the acceptor, which in turn fluoresces at 665 nm. To assess the ability of the synthetic small molecule STING ligands to bind to human STING, a competitive assay format was applied. A 10-point titration of each of the synthetic ligands in 5 uL were transferred into a 384 well plate, followed by 20 uL of assay buffer containing the 6×His-tagged human STING protein and labeled 2′3′cGAMP ligand and incubated for three hours at room temperature. The raw values obtained from the PHERAstar were used to calculate the reported IC50 values (the signal is inversely proportional to the binding of the synthetic ligand) through curve fitting in Genedata. The percent inhibition was calculated based upon the maximal amount of binding by synthetic compound versus the maximum binding of unlabeled 2′3′ cGAMP which was used as a control in each assay.
# THP-1 Lucia ISG cells = experiment: ISRE-luciferase assay (ISG-LUC activation); format: cell-based; settings: Homo sapiens, THP1-Lucia ISG, 24 hours, luciferase reporter
# Description: ISRE-luciferase assay. THP-1 Lucia ISG cells were resuspended in low-serum growth media (2% FBS) at a density of 5×10^5 cells/ml and treated with test article or vehicle (DMSO). 50 μL of cells were seeded into each well of a 384-well white greiner plates and incubated for 24 hours. To evaluate expression of the luciferase reporter, 30 μl of Quanti-luc (Invivogen) detection reagent was added to each well and luminescence was read using an Envision plate reader (Perkin Elmer) set with an integration time of 0.1 seconds. For each cell type, luminescence signals for test article samples were normalized to vehicle-treated samples and reported as relative light units (RLU).
# human STING protein, sequence (Q86WV6 whole entry): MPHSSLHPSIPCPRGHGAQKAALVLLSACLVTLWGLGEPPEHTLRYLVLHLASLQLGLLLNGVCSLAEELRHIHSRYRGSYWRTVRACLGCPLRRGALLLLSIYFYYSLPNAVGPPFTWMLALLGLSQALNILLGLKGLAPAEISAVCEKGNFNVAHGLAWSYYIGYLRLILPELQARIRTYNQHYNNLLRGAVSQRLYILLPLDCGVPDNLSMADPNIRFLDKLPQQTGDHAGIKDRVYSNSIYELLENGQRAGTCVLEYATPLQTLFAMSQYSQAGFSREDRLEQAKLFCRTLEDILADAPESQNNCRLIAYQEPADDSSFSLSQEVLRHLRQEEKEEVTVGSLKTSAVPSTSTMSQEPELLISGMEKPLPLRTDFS
IC50 (human STING protein) [µM],EC50 (THP-1 Lucia ISG cells) [µM],SMILES
> 1,–,NC(=O)c1cc(F)c(CCOc2cc(NC(=O)c3ccc(-n4ccnc4)nn3)c(C(=O)O)cc2F)cc1NC(=O)c1ccc(-n2ccnc2)nn1 [Compound 186]
0.01 to 0.1,0.5 to 5,O=C(Nc1cc(CCCc2cc(NC(=O)c3cc4nnnn4nn3)c(C(=O)O)cc2F)c(F)cc1C(=O)O)c1ccc(-c2cn[nH]c2)nn1 [Compound 192]
0.01 to 0.1,0.05 to 0.5,COc1cc(C(=O)O)c(NC(=O)c2ccc(-n3ccnc3)nn2)cc1CSCc1cc(NC(=O)c2ccc(-n3ccnc3)nn2)c(C(=O)O)cc1F [Compound 124]
0.01 to 0.1,0.5 to 5,"O=C(Nc1cc(C[S+]([O-])Cc2cc(NC(=O)c3ccc(-n4ccnc4)nn3)c(C(=O)O)cc2F)c(F)cc1C(=O)O)c1ccc(-n2ccnc2)nn1 [Compound 7, 4,4′-(sulfinylbis(methylene))bis(2-(6-(1H-imidazol-1-yl)pyridazine-3-carboxamido)-5-fluorobenzoic acid)]"
0.1 to 1,–,O=C(Nc1cc(OCCc2cc(NC(=O)c3ccc(-n4ccnc4)nn3)c(C(=O)O)cc2F)c(F)cc1C(=O)O)c1ccc(-c2cn[nH]c2)nn1 [Compound 158]
0.1 to 1,> 5,O=C(Nc1cc(OCCCCOc2ccc(C(=O)O)c(NC(=O)c3ccc(-n4ccnc4)nn3)c2)ccc1C(=O)O)c1ccc(-n2ccnc2)nn1 [Compound 16]
0.1 to 1,0.5 to 5,COc1cc(C(=O)O)c(NC(=O)c2ccc(-n3ccnc3)nn2)cc1OCCc1cc(NC(=O)c2ccc3nnnn3n2)c(C(=O)O)cc1Cl [Compound 109]
0.01 to 0.1,0.05 to 0.5,O=C(Nc1cc(CCc2cc(NC(=O)c3ccc(-n4ccnc4)nn3)c(C(=O)O)cc2F)c(F)cc1C(=O)O)c1ccc(-n2ccnc2)nn1 [Compound 187]
0.1 to 1,> 5,O=C(Nc1cc(OCCCCOc2cnc(C(=O)O)c(NC(=O)c3ccc4nnnn4n3)c2)c(F)cc1C(=O)O)c1ccc(-n2ccnc2)nn1 [Compound 83]
0.01 to 0.1,> 5,O=C(Nc1cc(OCCCCOc2cc(NC(=O)c3ccc4nnnn4n3)c(C(=O)O)cc2F)ccc1C(=O)O)c1ccc(-n2ccnc2)nn1 [Compound 74]
0.1 to 1,–,O=C(Nc1cc(CCCc2cc(NC(=O)c3ccc4cnnn4n3)c(C(=O)O)cc2F)c(F)cc1C(=O)O)c1ccc(O)nn1 [Compound 120]
0.1 to 1,–,Cn1nccc1-c1ccc(C(=O)Nc2cc(CCOc3cc(NC(=O)c4ccc(-c5ccnn5C)nn4)c(C(=O)O)cc3F)c(F)cc2C(=O)O)nn1 [Compound 208]
0.1 to 1,–,O=C(Nc1cc(F)c(CCOc2cc(C(=O)O)c(NC(=O)c3ccc(-n4ccnc4)nn3)cc2F)cc1C(=O)O)c1ccc(-n2ccnc2)nn1 [Compound 178]
0.1 to 1,–,CCOC(=O)CCC(=O)c1cc2cc(OCCc3cc(NC(=O)c4ccc5nnnn5n4)c(C(=O)O)cc3F)c(OC)cc2s1 [Compound 122]
0.1 to 1,–,COc1cc(NC(=O)c2ccc(-n3ccnc3)nn2)c(C(=O)O)c(F)c1OCCc1cc(NC(=O)c2ccc(-n3ccnc3)nn2)c(C(=O)O)cc1F [Compound 189]
0.1 to 1,–,O=C(Nc1cc(CCOc2cc(NC(=O)c3ccc(-n4ccnc4)nn3)c(P(=O)(O)O)cc2F)c(F)cc1C(=O)O)c1ccc(-n2ccnc2)nn1 [Compound 153]
0.1 to 1,–,CC(=O)Nc1cc(CCCc2cc(NC(=O)c3ccc(-n4ccnc4)nn3)c(C(=O)O)cc2F)ccc1C(=O)O [Compound 73]
0.1 to 1,–,Cn1nccc1-c1ccc(C(=O)Nc2cc(CCCc3cc(NC(=O)c4ccc(-c5ccnn5C)nn4)c(C(=O)O)cc3F)c(F)cc2C(=O)O)nn1 [Compound 201]
0.1 to 1,–,O=C(Nc1cc(OCCc2cc(NC(=O)c3ccc(-n4ccnc4)nn3)c(-c3nn[nH]n3)cc2F)c(F)cc1C(=O)O)c1ccc(-n2ccnc2)nn1 [Compound 179]

IC50 (human STING protein) [µM],EC50 (THP-1 Lucia ISG cells) [µM],SMILES
0.1 to 1,–,O=C(Nc1cc(OCCCCOc2cc(NC(=O)c3ccc(-n4ccnc4)nn3)c(C(=O)O)cc2Cl)ccc1C(=O)O)c1ccc(-n2ccnc2)nn1 [Compound 81]
–,0.05 to 0.5,COc1cc(C(=O)O)c(NC(=O)c2ccc(-n3ccnc3)nn2)cc1CCCc1ccc(C(=O)O)c(NC(=O)c2ccc(-n3ccnc3)nn2)c1 [Compound 56]
–,0.05 to 0.5,"COc1cc(C(=O)O)c(NC(=O)c2ccc(-n3ccnc3)nn2)cc1OCCc1cc(C(=O)O)c(NC(=O)c2ccc3nnnn3n2)cc1Cl [Compound 6, 2-(6-(1H-imidazol-1-yl)pyridazine-3-carboxamido)-4-(5-carboxy-2-chloro-4-(tetrazolo[1,5-b]pyridazine-6-carboxamido)phenethoxy)-5-methoxybenzoic acid]"
–,< 0.05,COC(=O)c1cc(F)c(CCCc2cc(NC(=O)c3ccc(-n4ccnc4)nn3)c(C(=O)OC)cc2OC)cc1NC(=O)c1ccc(-n2ccnc2)nn1 [Compound 54]
–,0.05 to 0.5,N#Cc1cc(C(=O)O)c(NC(=O)c2ccc(-n3ccnc3)nn2)cc1CCCc1cc(NC(=O)c2ccc(-n3ccnc3)nn2)c(C(=O)O)cc1F [Compound 182]
–,> 5,O=C(Nc1cc(CCCc2ccc(C(=O)O)c(NC(=O)c3ccc4nnnn4n3)c2)ccc1C(=O)O)c1ccc(-n2ccnc2)nn1 [Compound 63]
–,< 0.05,COc1cc2c(=O)oc(-c3ccc(-n4ccnc4)nn3)nc2cc1OCCCCOc1cc2nc(-c3ccc(-n4ccnc4)nn3)oc(=O)c2cc1OC [Compound 41]
–,< 0.05,O=c1oc(-c2ccc(-n3ccnc3)nn2)nc2cc(OCCCCOc3cc4nc(-c5ccc(-n6ccnc6)nn5)oc(=O)c4cc3F)c(F)cc12 [Compound 40]
–,0.05 to 0.5,CC(Cc1cc(NC(=O)c2ccc(-n3ccnc3)nn2)c(C(=O)O)cc1F)Cc1cc(NC(=O)c2ccc(-n3ccnc3)nn2)c(C(=O)O)cc1F [Compound 194]
0.1 to 1,–,O=C(Nc1cc(OCCCCOc2cnc(C(=O)O)c(NC(=O)c3ccc(-n4ccnc4)nn3)c2)c(F)cc1C(=O)O)c1ccc(-n2ccnc2)nn1 [Compound 69]
0.1 to 1,–,O=C(Nc1cc(CCOc2cc(NC(=O)c3ccc(-n4ccnc4)nn3)c(C(=O)O)cc2F)c(F)cc1CO)c1ccc(-n2ccnc2)nn1 [Compound 198]
–,0.05 to 0.5,O=C(Nc1cc(CCCc2cc(NC(=O)c3ccc4nnnn4n3)c(C(=O)O)cc2F)c(F)cc1C(=O)O)c1ccc(-n2ccnc2)nn1 [Compound 67]
–,> 5,O=C(Nc1cc(OCCCOc2cc(C(=O)O)c(NC(=O)c3ccc4nnnn4n3)cc2F)c(F)cc1C(=O)O)c1ccc2nnnn2n1 [Compound 33]
–,> 5,O=C(Nc1cc(OCCOc2cc(C(=O)O)c(NC(=O)c3ccc4nnnn4n3)cc2F)ccc1C(=O)O)c1ccc2nnnn2n1 [Compound 26]
–,0.5 to 5,COC(=O)c1cc(F)c(OCCc2cc(NC(=O)c3ccc(-n4ccnc4)nn3)c(C(O)C(=O)OC)cc2F)cc1NC(=O)c1ccc(-n2ccnc2)nn1 (stereo not shown) [Compound 152]
–,0.5 to 5,O=C(Nc1cc(CCCc2cc(C(=O)O)c(NC(=O)c3ccc(-n4ccnc4)nn3)cc2F)c(F)cc1C(=O)O)c1ccc(-n2ccnc2)nn1 [Compound 70]
0.1 to 1,–,O=C(Nc1cc(OCCCOc2cc(NC(=O)c3ccc(-n4ccnc4)nn3)c(C(=O)O)cc2F)c(F)cc1C(=O)O)c1ccc(N2CCOCC2)nn1 [Compound 211]
–,> 5,O=C(Nc1cc(OCCCCOc2ccc(C(=O)O)c(NC(=O)c3ccc(-n4ccnc4)nn3)c2)ccc1C(=O)O)c1cccnn1 [Compound 44]
–,0.5 to 5,O=C(Nc1cc(OCCCCOc2cc(NC(=O)c3ccc(-n4ccnc4)nn3)c(C(=O)O)cc2F)ccc1C(=O)O)c1ccc(-n2ccnc2)nn1 [Compound 19]
